Laboratory results: PMC10382042, “Brevetoxin versus Brevenal Modulation of Human Nav1 Channels” (Marine Drugs, 2023)
“And” between values parts separate entries of the source, which are not always exact repeats. Identical values can stand only once. Like-named read-outs stand apart in the source and are kept apart here.

Key:
Type in all cases: cell-based
human Nav1.2 [1] = target: T1, human Nav1.2 (Homo sapiens, UniProt Q99250); test: Automated patch-clamp, concentration-response and inactivation fits, Nav1.2 in HEK293; settings: for Nav1.2 yinf: single exponential fit
Experimental: (§1) Functional modulation of recombinant human voltage-gated sodium (Nav) channels exposed to marine PbTx-3 and brevenal was assessed by automated patch-clamp electrophysiology. Neuronal Nav1.2 (CNS) and Nav1.7 (PNS), in addition to muscle Nav1.4 (skeletal) and Nav1.5 (cardiac) sodium channels, were patch-clamped in mammalian cells. Whole-cell currents mediated by human Nav1.4 and Nav1.7 overexpressed in CHO-K1 cells, as well as human Nav1.2 and Nav1.5 overexpressed in HEK293 cells, were recorded at room temperature. Currents were elicited by 25 ms test pulses to −20 mV from a holding potential (Vh) of −120 mV, delivered for 5 min at 0.1 Hz, after each full-bath solution exchange to allow current amplitude and kinetics to reach a steady state.
(§2) Current traces were scaled to maximal Ipeak and are presented as insets in Figure 2 to underline the effects (or lack thereof) of PbTx-3 and brevenal on the current kinetics of the four Nav isoforms studied. Inactivation time constants (τinact) in control and the presence of PbTx-3 and brevenal were estimated by exponential fits (see Methods) to the current decay between 15% and 85% of the depolarizing pulse. Single exponential fits adequately described τinact for the neuronal and the skeletal muscle Nav isoforms, whereas a double exponential fit was required to approximate open channel inactivation of the cardiac Nav current. Consistent with the enhancement of Ilate observed for Nav1.2, Nav1.4, and Nav1.5 in the presence of PbTx-3, significant concentration-dependent increases in the Yinf asymptote were detected (Tables S1–S3). These were mirrored by brevenal exposure in Nav1.2- and Nav1.4-mediated currents. Nevertheless, the estimated τinacts appeared insensitive to PbTx-3 and brevenal modification, with the notable exception of Nav1.4, for which high concentrations of PbTx-3 and brevenal caused a measurable slowing of the open channel inactivation time constant (Table S2).
(§3) Recording solutions: The extracellular solution contained (in mM) 140 NaCl, 5 KCl, 2 CaCl2, 2 MgCl2, 10 glucose, and 10 HEPES (pH 7.4 with NaOH, 298 ± 3 mOsmol/k g). Control intracellular solution (in mM): 60 CsF, 70 CsCl, 10 EGTA, 10 glucose, and 10 HEPES (pH 7.2 with CsOH, 285 ± 3 mOsmol/kg). Intracellular exposure to brevenal (1 μM) was achieved by including it in the control intracellular solution during chip filling.
(§4) HEK293 cells heterologously expressing human Nav1.2 (Scottish Biomedical, a kind gift from the Petrous lab, Florey Institute of Neuroscience and Mental Health, Melbourne, VIC Australia) and Nav1.5 (ChanTest Corp., Cleveland, OH, USA) were cultured in DMEM containing 10% v/v FBS and selection antibiotics to enable stable expression as per the manufacturer’s recommendation. CHOK1 expressing Nav1.4 and Nav1.7 (ChanTest) was cultured in DMEM/F12 containing 10% v/v FBS and selection antibiotics supporting stable expression as recommended by the manufacturer. Cells were maintained in a humidified 5% CO2 incubator at 37 °C, grown in T25 flasks to 70–80% confluence, and passaged every 3–4 days using TrypLE Express (Invitrogen). After harvesting with TrypLE, cells were resuspended to 10^5 cells/mL in cold extracellular solution and allowed to recover for 30 min at 4 °C before recording.
(§5) Electrophysiology: Automated patch-clamp (APC) recordings were performed in a PatchLiner Octo (Nanion Technologies GmbH, Munich, Germany) equipped with two EPC-10 quadro patch-clamp amplifiers (HEKA Electronik, Lambrecht/Pfalz, Germany). PatchControl HT (Nanion) was used for cell capture, seal formation, and establishment of the whole-cell configuration, whilst voltage was controlled and currents were sampled with PatchMaster (HEKA Electronics). Recordings were performed under the whole-cell configuration using single-hole planar medium resistance NPC-16 chips (Rchip, resistance of ~2.5 MΩ) at room temperature (22–24 °C).
(§6) Cells between passages 6 and 12 were used. […]

human Nav1.5 [2] = target: T2, human Nav1.5 (Homo sapiens, UniProt Q14524); test: Automated patch-clamp I-V relationship (voltage dependence of activation, Gmax), Nav1.5
Experimental: (§7) The voltage dependence of recombinant Nav channel-mediated currents exposed to PbTx-3 and brevenal was evaluated using current–voltage (I-V) relationships built for Ipeak and Ilate elicited by a standard stimulation protocol (25 ms, −100 to +60 mV, Vh −120 mV, 0.1 Hz).
(§8) The effects of extracellular exposure to PbTx-3 (PbTx-3o = 1 μM) and brevenal (Brevenalo = 10 μM) on the activation of Nav channels in neuronal and muscle cells were examined under normal intracellular ionic conditions. […] To investigate the possibility of overlapping binding of these compounds within Nav channels, Nav whole-cell currents were recorded using an intracellular solution supplemented with brevenal (Brevenali = 1 μM). After equilibration, extracellular PbTx-3o (1 μM) was applied and its modulatory effects over the current kinetics and voltage dependence of activation were compared.
(§9) Figure 4 and Figure 5 display representative current traces mediated by human recombinant Nav channels in control and upon exposure to PbTx-3 and brevenal. I-V plots from the normalized peak and late (when present) currents amplitudes (Ipeak/Ipeak^max and Ilate/Ipeak^max) were fitted to a Boltzmann function rendering the half-maximal activation potential (V0.5) and normalized macroscopic conductance (Gmax) parameters (see Section 4). The changes in V0.5 (ΔV0.5 = V0.5^Comp − V0.5^Ctr) and relative Gmax (Gmax^Rel = Gmax^Comp/Gmax^Ctr) observed in the presence of PbTx-3 and brevenal and control conditions were then calculated and compared for all assayed conditions.
as §3, §5
(§10) Peak I–V curves were fitted using:I(V) = (V − Vrev) × Gmax/(1 + exp ((V0.5 − V)/Vslope) where I is the macroscopic current, V is the command potential, Vrev is the reversal potential (mV), Gmax is the maximal conductance, V0.5 is the half-activation potential (mV), and Vslope is the slope factor (mV/e-fold).

human Nav1.5 [3] = target: T2, human Nav1.5; test: cell-based; settings: for EC50: read-out: Nav1.5 Ipeak EC50
Experimental: as §1, §2, §3, §4, §5, §6

human Nav1.7 = human Nav1.7 (Homo sapiens, UniProt Q15858); test: Automated patch-clamp, concentration-response and inactivation fits, Nav1.7 in CHO-K1
Experimental: as §1, §2, §3, §4, §5, §6

human Nav1.2 [4] = target: T1, human Nav1.2; test: Automated patch-clamp I-V relationship (voltage dependence of activation, Gmax), Nav1.2
Experimental: as §7, §8, §9, §3, §5, §10

[5] = test pulse −20 mV, Vh −120 mV, extracellular, n = 5
[6] = extracellular brevenal 10 μM, n = 5

T1 sequence (Q99250 whole entry): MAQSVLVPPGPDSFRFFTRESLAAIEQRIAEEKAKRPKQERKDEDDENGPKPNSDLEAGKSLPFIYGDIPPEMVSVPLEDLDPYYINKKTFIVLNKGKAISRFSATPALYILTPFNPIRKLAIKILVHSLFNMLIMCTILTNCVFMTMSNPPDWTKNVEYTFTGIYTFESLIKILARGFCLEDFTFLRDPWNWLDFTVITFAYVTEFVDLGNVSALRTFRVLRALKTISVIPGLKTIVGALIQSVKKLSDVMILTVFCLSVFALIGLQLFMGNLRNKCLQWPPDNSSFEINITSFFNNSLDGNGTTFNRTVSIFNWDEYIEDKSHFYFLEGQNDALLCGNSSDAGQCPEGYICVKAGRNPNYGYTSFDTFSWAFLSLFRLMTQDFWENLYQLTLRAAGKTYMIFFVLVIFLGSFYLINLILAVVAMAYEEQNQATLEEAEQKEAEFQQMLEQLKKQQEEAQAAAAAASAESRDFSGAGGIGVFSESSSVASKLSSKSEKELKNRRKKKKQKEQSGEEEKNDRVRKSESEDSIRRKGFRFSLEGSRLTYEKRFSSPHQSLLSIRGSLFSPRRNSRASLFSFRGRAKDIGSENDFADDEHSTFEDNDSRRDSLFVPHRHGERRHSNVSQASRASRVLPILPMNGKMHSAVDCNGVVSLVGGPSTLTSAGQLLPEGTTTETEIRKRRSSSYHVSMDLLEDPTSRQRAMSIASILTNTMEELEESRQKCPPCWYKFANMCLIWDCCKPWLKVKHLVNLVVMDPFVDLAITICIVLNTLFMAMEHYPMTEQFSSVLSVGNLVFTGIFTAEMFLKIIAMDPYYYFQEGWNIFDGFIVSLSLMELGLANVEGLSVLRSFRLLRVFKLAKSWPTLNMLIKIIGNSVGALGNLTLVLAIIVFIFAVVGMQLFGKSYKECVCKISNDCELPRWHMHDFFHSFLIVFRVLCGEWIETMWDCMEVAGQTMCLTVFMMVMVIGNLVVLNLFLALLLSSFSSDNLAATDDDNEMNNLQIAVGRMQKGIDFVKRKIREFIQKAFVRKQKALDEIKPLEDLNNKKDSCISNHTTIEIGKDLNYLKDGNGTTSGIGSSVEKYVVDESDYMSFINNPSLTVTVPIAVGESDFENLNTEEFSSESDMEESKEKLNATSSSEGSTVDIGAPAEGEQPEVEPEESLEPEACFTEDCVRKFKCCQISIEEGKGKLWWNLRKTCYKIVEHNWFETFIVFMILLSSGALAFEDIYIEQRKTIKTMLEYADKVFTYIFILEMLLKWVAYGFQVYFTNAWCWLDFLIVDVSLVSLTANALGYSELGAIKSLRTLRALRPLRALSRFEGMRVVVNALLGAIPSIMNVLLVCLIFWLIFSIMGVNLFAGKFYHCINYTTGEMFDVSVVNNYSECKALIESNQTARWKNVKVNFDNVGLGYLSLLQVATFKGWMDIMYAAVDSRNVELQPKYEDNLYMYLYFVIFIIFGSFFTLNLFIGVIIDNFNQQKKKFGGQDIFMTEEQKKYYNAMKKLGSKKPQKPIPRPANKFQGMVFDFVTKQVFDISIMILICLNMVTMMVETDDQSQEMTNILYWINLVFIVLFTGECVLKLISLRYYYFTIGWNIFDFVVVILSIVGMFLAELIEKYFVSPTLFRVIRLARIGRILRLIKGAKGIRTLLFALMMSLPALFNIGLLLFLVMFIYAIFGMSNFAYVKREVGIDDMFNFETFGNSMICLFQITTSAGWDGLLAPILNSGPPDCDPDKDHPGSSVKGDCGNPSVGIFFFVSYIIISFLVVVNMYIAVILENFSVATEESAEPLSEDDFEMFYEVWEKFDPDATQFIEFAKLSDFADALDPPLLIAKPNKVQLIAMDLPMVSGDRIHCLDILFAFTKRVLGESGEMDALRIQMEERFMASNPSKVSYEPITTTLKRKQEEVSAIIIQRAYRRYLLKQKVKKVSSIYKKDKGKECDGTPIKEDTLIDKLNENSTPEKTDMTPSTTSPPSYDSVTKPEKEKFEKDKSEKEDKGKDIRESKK
human Nav1.7, sequence (Q15858 whole entry): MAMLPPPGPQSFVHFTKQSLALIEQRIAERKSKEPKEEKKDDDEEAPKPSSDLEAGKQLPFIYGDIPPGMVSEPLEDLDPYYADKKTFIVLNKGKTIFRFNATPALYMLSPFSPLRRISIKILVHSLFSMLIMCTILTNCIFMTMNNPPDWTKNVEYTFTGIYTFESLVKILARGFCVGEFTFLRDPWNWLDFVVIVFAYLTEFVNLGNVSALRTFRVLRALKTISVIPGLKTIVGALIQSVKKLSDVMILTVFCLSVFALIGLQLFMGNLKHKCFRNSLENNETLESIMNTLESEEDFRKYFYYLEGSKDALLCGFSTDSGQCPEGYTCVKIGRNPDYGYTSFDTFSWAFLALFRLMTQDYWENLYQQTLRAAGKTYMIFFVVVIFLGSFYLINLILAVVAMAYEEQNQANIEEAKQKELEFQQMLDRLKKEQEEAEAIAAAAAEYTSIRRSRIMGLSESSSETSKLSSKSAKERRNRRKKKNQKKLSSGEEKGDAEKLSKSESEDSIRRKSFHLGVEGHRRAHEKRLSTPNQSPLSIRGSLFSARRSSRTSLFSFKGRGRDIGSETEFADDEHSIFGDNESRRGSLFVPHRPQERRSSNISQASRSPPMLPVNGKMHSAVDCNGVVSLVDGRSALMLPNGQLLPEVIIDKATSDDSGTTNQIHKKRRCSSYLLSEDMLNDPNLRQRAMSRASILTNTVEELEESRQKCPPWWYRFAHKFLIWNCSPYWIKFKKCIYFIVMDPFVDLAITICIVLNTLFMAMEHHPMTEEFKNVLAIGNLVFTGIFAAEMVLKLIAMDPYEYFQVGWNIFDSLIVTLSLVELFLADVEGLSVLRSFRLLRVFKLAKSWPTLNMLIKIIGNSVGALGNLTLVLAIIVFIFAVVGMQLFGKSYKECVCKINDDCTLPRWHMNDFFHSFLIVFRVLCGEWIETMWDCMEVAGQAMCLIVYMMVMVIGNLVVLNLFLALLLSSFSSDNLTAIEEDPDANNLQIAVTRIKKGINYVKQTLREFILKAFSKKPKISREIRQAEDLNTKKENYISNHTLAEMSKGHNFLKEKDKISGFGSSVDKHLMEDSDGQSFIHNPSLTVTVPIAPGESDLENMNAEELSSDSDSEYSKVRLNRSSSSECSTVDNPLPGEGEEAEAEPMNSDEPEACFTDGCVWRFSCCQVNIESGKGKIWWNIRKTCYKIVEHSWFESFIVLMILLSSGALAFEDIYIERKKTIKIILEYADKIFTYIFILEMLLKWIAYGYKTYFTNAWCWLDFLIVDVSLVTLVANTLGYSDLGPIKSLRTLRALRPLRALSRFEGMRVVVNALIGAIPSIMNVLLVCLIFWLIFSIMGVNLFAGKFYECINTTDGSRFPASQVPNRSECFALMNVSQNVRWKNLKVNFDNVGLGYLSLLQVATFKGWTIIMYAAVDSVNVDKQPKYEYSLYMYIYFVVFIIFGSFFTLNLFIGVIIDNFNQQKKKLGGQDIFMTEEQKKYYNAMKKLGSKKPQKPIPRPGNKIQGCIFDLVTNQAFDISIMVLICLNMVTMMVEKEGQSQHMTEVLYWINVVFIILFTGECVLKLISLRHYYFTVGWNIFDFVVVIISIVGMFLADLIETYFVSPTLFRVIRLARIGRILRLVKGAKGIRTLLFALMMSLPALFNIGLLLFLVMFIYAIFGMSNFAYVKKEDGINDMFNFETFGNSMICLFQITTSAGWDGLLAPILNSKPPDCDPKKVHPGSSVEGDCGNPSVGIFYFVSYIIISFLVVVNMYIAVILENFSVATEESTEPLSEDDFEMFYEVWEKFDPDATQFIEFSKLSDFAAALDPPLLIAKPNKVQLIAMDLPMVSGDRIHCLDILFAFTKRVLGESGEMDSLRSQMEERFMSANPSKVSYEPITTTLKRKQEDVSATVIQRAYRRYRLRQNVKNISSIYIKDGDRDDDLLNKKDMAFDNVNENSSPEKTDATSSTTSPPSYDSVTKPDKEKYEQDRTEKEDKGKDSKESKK

In the case of `C=C/C=C\CC[C@H]1O[C@H]2CC[C@@]3(C)O[C@H]4[C@@H](O)C[C@@]5(C)O[C@@H](CC/C=C(C)/C(C)=C/C=O)[C@@H](C)C[C@H]5O[C@@H]4C[C@@H]3O[C@@H]2CC[C@@]1(C)O` [Brevenal], the “Nav1.2 τ inact” value (human Nav1.2 [1]; 10^-5 M, n = 4) is reported as 0.75 ± 0.10 ms, the Nav1.2 yinf (human Nav1.2 [1]; 10^-5 M, n = 4) is reported as 0.12±0.06 and the “Nav1.2 τ inact” value (human Nav1.2 [1]; 10^-6 M, n = 4) is reported as 0.65 ± 0.08 ms. The Nav1.2 yinf (human Nav1.2 [1]; 10^-6 M, n = 4) was 0.10±0.07, the “Nav1.2 τ inact” value (human Nav1.2 [1]; 10^-9 M, n = 4) was 0.74 ± 0.8 ms and the Nav1.2 yinf (human Nav1.2 [1]; 10^-9 M, n = 4) was 0.08±0.04. The EC50 (human Nav1.2 [1]; inhibition of peak current, −20 mV, Vh −120 mV, n = 5, read-out: Nav1.2 Ipeak EC50) was 18 nM, the “Nav1.2 Ipeak FC^Max (maximal fold change)” value (human Nav1.2 [1]; [5]) was 0.6 ± 0.1 and the “ΔV0.5 of Nav1.5 activation” value (human Nav1.5 [2]; Brevenalo 10 μM, n = 7) was 0.1 ± 1.4 mV. The “relative Gmax of Nav1.5” value (human Nav1.5 [2]; brevenal 10 μM extracellular, n = 7) was 0.3 ± 0.1, the “Nav1.5 A1Rel” value (human Nav1.5 [3]; 10^-5 M, n = 4) was 0.77±0.05 and the “Nav1.5 τ 1inact” value (human Nav1.5 [3]; 10^-5 M, n = 4) was 0.44 ± 0.01 ms. For the same compound, the “Nav1.5 τ 2inact” value (human Nav1.5 [3]; 10^-5 M, n = 4) was 1.79 ± 0.06 ms, the “Nav1.5 A1Rel” value (human Nav1.5 [3]; 10^-6 M, n = 4) was 0.77±0.07 and the “Nav1.5 τ 1inact” value (human Nav1.5 [3]; 10^-6 M, n = 4) was 0.46 ± 0.01 ms. The “Nav1.5 τ 2inact” value (human Nav1.5 [3]; 10^-6 M, n = 4) was 2.05 ± 0.21 ms, the “Nav1.5 A1Rel” value (human Nav1.5 [3]; 10^-9 M, n = 4) was 0.73±0.07 and the “Nav1.5 τ 1inact” value (human Nav1.5 [3]; 10^-9 M, n = 4) was 0.45 ± 0.01 ms. For the same compound, the “Nav1.5 τ 2inact” value (human Nav1.5 [3]; 10^-9 M, n = 4) was 1.77 ± 0.34 ms, the EC50 (human Nav1.5 [3]; inhibition of peak current, −20 mV, Vh −120 mV, n = 5) was 17 nM and the “Nav1.5 Ilate FC^Max (maximal fold change)” value (human Nav1.5 [3]; not significant vs control, −20 mV, Vh −120 mV, n = 5) was 1.3 ± 0.2. For the same compound, the “Nav1.5 Ipeak FC^Max (maximal fold change)” value (human Nav1.5 [3]; [5]) was 0.4 ± 0.1, the Nav1.7 yinf (human Nav1.7; 10^-5 M, n = 4) was 0.07±0.01 and the “Nav1.7 τ inact” value (human Nav1.7; 10^-5 M, n = 4) was 0.93 ± 0.09 ms. The Nav1.7 yinf (human Nav1.7; 10^-6 M, n = 4) was 0.07±0.01, the “Nav1.7 τ inact” value (human Nav1.7; 10^-6 M, n = 4) was 0.85 ± 0.06 ms and the Nav1.7 yinf (human Nav1.7; 10^-9 M, n = 4) was 0.07±0.01. The “Nav1.7 τ inact” value (human Nav1.7; 10^-9 M, n = 4) was 0.76 ± 0.05 ms, the “modulation of Nav1.7 currents” value (human Nav1.7; up to 30 μM) was “did not modulate” and the “Nav1.2 V0.5” value (human Nav1.2 [4]; Ctro:Brevenali, intracellular brevenal 1 μM, n = 4, control −22.6 ± 1.9 mV) was −43.9 ± 2.3 mV. For the same compound, the “decrease in Nav1.2 Gmax” value (human Nav1.2 [4]; extracellular brevenal 10 μM) was ~ 40%, the “Gmax^Rel of Nav1.2” value (human Nav1.2 [4]; [6]) was 0.6 ± 0.1 and the “ΔV0.5 of Nav1.2 activation (depolarizing shift)” value (human Nav1.2 [4]; [6]) was 6.1 ± 1.0 mV. The “leftward shift in Nav1.2 V0.5 vs control intracellular” value (human Nav1.2 [4]; intracellular dialysis with brevenal 1 μM) was ~ 20 mV.

For `C=C(CO)C[C@@H]1C[C@H](O)[C@]2(C)OC3CC4OC5C[C@]6(C)O[C@]7(C)CCC8OC9C[C@]%10(C)OC%11C(C)=CC(=O)OC%11CC%10OC9C[C@@H](C)C8OC7CC6O[C@@]5(C)C/C=C\C4OC3CC2O1` (stereo partly drawn) [PbTx-3, Brevetoxin PbTx-3], the “Nav1.2 Ilate FC^Max (maximal fold change)” value (human Nav1.2 [1]) was 3.0 ± 0.1, the “Nav1.2 τ inact” value (human Nav1.2 [1]) was 0.88 ± 0.1 ms and 0.76 ± 0.05 ms and 0.64 ± 0.14 ms and the EC50 (human Nav1.2 [1]; read-out: Nav1.2 Ilate EC50) was 0.0053 nM. The “Gmax^Rel of Nav1.5” value (human Nav1.5 [2]) was 1.2 ± 0.1, the “depolarizing shift in V0.5 of Nav1.5” value (human Nav1.5 [2]) was 8.7 ± 1.2 mV and the “depolarizing shift ΔV0.5 of Nav1.5” value (human Nav1.5 [2]) was 10.8 ± 2.0 mV. For the same compound, the “relative Gmax of Nav1.5” value (human Nav1.5 [2]) was 0.4 ± 0.04, the “Nav1.5 A1Rel” value (human Nav1.5 [3]) was 0.82±0.05 and 0.72±0.01 and 0.71±0.06 and the “Nav1.5 A2Rel” value (human Nav1.5 [3]) was 0.18±0.05 and 0.28±0.01 and 0.29±0.06. For the same compound, the “Nav1.5 Ilate FC^Max (maximal fold change)” value (human Nav1.5 [3]) was 1.8 ± 0.1, the “Nav1.5 Ipeak FC^Max (maximal fold change)” value (human Nav1.5 [3]) was 0.2 ± 0.1 and the “Nav1.5 τ 1inact” value (human Nav1.5 [3]) was 0.46 ± 0.03 ms and 0.48 ± 0.06 ms and 0.45 ± 0.02 ms. The “Nav1.5 τ 2inact” value (human Nav1.5 [3]) was 2.42 ± 0.52 ms and 2.67 ± 0.78 ms and 1.48 ± 0.31 ms, the EC50 (human Nav1.5 [3]) was 2.2 nM and the “Nav1.7 Ilate FC^Max (maximal fold change)” value (human Nav1.7) was 0.6 ± 0.1. For the same compound, the “Nav1.7 Ipeak FC^Max (maximal fold change)” value (human Nav1.7) was 0.4 ± 0.1, the Nav1.7 yinf (human Nav1.7) was 0.04±0.01 and the “Nav1.7 τ inact” value (human Nav1.7) was 0.60 ± 0.05 ms and 0.63 ± 0.04 ms and 0.66 ± 0.11 ms. The IC50 (human Nav1.7; read-out: IC50, inhibition of Nav1.7 Ilate) was 34 nM, the EC50 (human Nav1.7; read-out: Nav1.7 Ipeak EC50) was 0.16 nM and the “Gmax^Rel of Nav1.2” value (human Nav1.2 [4]) was 0.9 ± 0.1. The “Nav1.2 Ilate as % of Ipeak” value (human Nav1.2 [4]) was ~ 40% and the “ΔV0.5 of Nav1.2 activation” value (human Nav1.2 [4]) was 1.5 ± 1.0 mV.
